# PubChem BioAssay (NCI)
# “And” between values parts separate entries of the source, which are not always exact repeats. Equal entries are not always repeated.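 Following 48 hours of exposure in 96-well plates, responses at five concentrations were used to interpolate endpoints linearly. The concentration for 50% growth inhibition is given as GI50. At the TGI there is no net growth.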
# Legend:
# Assay in all cases: DTP human tumour cell line panel, 48 h
# OVCAR-4 ovarian = tested on: OVCAR-4 ovarian
# SNB-75 CNS = tested on: SNB-75 CNS
# A549 NSCLC = tested on: A549 NSCLC
# A498 renal = tested on: A498 renal
# HT29 colon = tested on: HT29 colon
# EKVX NSCLC = tested on: EKVX NSCLC
# SF-268 CNS = tested on: SF-268 CNS
# CAKI-1 renal = tested on: CAKI-1 renal
# UACC-257 melanoma = tested on: UACC-257 melanoma
# TK-10 renal = tested on: TK-10 renal
Compound,GI50 (OVCAR-4 ovarian) [µM],TGI (OVCAR-4 ovarian),GI50 (SNB-75 CNS) [µM],TGI (SNB-75 CNS),GI50 (A549 NSCLC) [µM],TGI (A549 NSCLC),GI50 (A498 renal),TGI (A498 renal),GI50 (HT29 colon) [µM],TGI (HT29 colon),GI50 (EKVX NSCLC) [µM],TGI (EKVX NSCLC),GI50 (SF-268 CNS),TGI (SF-268 CNS),GI50 (CAKI-1 renal) [µM],TGI (CAKI-1 renal) [µM],GI50 (UACC-257 melanoma) [µM],TGI (UACC-257 melanoma),GI50 (TK-10 renal) [µM],TGI (TK-10 renal)
Nc1ncnc2c1c(-c1ccc(Oc3ccccc3)cc1)nn2CC1SSCC1O (centres undefined),2.2,22.1 µM,5.79,14.9 µM,3.8,9.17 µM,5.1 µM,11.6 µM,1.27,6.36 µM,1.04,6.25 µM,0.126 µM,7.01 µM,3.71,12.7,2.07,10.6 µM,1.91,6.34 µM
O=C(CI)NC(=O)NC(=O)NCc1ccccc1,4.42,31 µM,11.3,29.2 µM,18.7,42.8 µM,15.9 µM,30.9 µM,2.66,6.72 µM,17.5,39.6 µM,4.4 µM,21.6 µM,1.69,3.12,11.5,23.9 µM,1.86,4.12 µM
N#CN1CC[C@H](C(=O)Nc2ncc(-c3ccccc3)s2)C1,0.673,5.59 µM,0.374,2.69 µM,1.9,8.61 µM,1.62 µM,3.45 µM,0.313,1.82 µM,1.43,3.28 µM,0.789 µM,4.23 µM,1.65,4.26,1.52,3.73 µM,1.19,2.99 µM
CC(C)N(C(=O)C12C3C4C1C1C4(C#N)C3C12C(=O)O)C(C)C (centres undefined),,> 100 µM,,> 100 µM,,> 100 µM,,> 100 µM,,> 100 µM,,> 100 µM,,> 100 µM,,> 100,,> 100 µM,,> 100 µM
Nc1nc(Cl)c2ncn(Cc3ccc(C45CC6CC(CC(C6)C4)C5)c(OCc4cc(F)c(F)cc4F)c3)c2n1,6.08,> 100 µM,27.5,> 100 µM,1.94,5.89 µM,8.78 µM,22.8 µM,3.45,22.7 µM,10.8,67.1 µM,3.01 µM,15.2 µM,2.37,5.48,0.494,3.97 µM,2.88,10.3 µM
CCc1ccc(Oc2c(-c3ccc(OCc4ccc(Cl)cc4)cc3O)nn(C)c2C(F)(F)F)cc1,0.547,2.33 µM,1.34,4.49 µM,0.514,1.95 µM,1.28 µM,2.93 µM,0.58,2.11 µM,1.03,2.98 µM,1.25 µM,2.9 µM,2.09,7.25,1.18,3.53 µM,1.23,3.18 µM
[O-][n+]1c2cccc(O)c2[n+]([O-])c2cccc(O)c21,,> 100 µM,,> 100 µM,,> 100 µM,,> 100 µM,,> 100 µM,,76.2 µM,,> 100 µM,,> 100,,> 100 µM,,> 100 µM
O=C(Nc1ccccc1C(=O)NC(=O)c1ccccc1NC(=O)c1ccccc1)c1ccccc1,,18 µM,,8.87 µM,,23.1 µM,,33.3 µM,,12.7 µM,,28.3 µM,,22.2 µM,,29.1,,4.94 µM,,25.9 µM
CC[n+]1c(-c2ccccc2)c2cc(N)ccc2c2ccc(N)cc21,0.705,3.99 µM and 29.5 µM and 36 µM,1.29,3.16 µM and 1.14 µM,2.17,48.3 µM and 76.7 µM and > 95.1 µM,5.18 µM and 4.76 µM and 14.7 µM,40.8 µM and 52.5 µM and 66.2 µM,1.64,9.45 µM and 29 µM,,34.2 µM and 42.8 µM and > 100 µM,0.281 µM and 0.589 µM and 1.26 µM,2.44 µM and 11.9 µM and 16.9 µM,66.2,> 100,1.22,4.8 µM and 10 µM and 6.4 µM,2.38,19.7 µM and 68.8 µM
O=c1[nH]c(=S)[nH]c(O)c1/C=C1\C=Nc2ccccc21,21.2,> 100 µM,1.73,5 µM,37.2,> 100 µM,12.3 µM,28.4 µM,3.37,10.6 µM,7.14,32.8 µM,2.52 µM,7.91 µM,3.61,20.3,14.2,53.6 µM,25.1,> 100 µM
CC1CCCP(=O)(c2ccccc2)CCC1 (centres undefined),,> 100 µM,,> 100 µM,,> 100 µM,,> 100 µM,,> 100 µM,,> 100 µM,,> 100 µM,,> 100,,> 100 µM,,> 100 µM
O=[N+]([O-])c1cccnc1S(=O)(=O)c1ccccc1,,17.1 µM,,35.9 µM,,40.4 µM,,36.6 µM,,14.3 µM,,14.5 µM,,27.3 µM,,6.98,,33.4 µM,,22.2 µM
O=C1Nc2ccc(-c3cccnc3)cc2/C1=C/c1cc(Br)c(O)c(Br)c1,14.8,> 25 µM,> 13,> 25 µM,8.05,> 25 µM,3.86 µM,11.5 µM,7.06,> 25 µM,10.2,> 25 µM,7.71 µM,> 25 µM,4.83,> 23.7,4.07,9.36 µM,7.82,24.3 µM
CN(C)CCNC(=O)Nc1ccc(N(C)c2ccnc(Nc3ccc(CS(C)(=O)=O)cc3)n2)cc1,> 25,> 25 µM,> 12.7,> 25 µM,> 25,> 25 µM,> 25 µM,> 25 µM,> 25,> 25 µM,> 25,> 25 µM,> 25 µM,> 25 µM,> 25,> 25,> 25,> 25 µM,> 25,> 25 µM
C/C(=C/CCC(C)[C@@H]1CC[C@]2(C)C3=C(CC[C@@]12C)[C@@]1(C)CCC(=O)C(C)(C)[C@@H]1CC3)C(=O)O (some centres undefined),1.27,3.02 µM,1.69,3.22 µM,0.387,1.84 µM,0.975 µM,2.39 µM,1.39,3.04 µM,0.705,2.19 µM,1.47 µM,3.08 µM,0.753,2.14,1.56,3.06 µM,1.45,2.83 µM
CCCCCCCCCC1CC(=O)OC23CCCC(=O)C12O3 (centres undefined),,> 100 µM,,> 100 µM,,> 100 µM,,> 100 µM,,> 100 µM,,> 100 µM,,> 100 µM,,> 100,,> 100 µM,,> 100 µM
COc1ccccc1/C=C(\NC(=O)c1ccccc1)c1nc2ccc(Cl)cc2[nH]1,,> 100 µM,,70.7 µM,,70.2 µM,,80.9 µM,,> 100 µM,,78.7 µM,,> 100 µM,,74.4,,> 100 µM,,73.7 µM
CN(C)CCCOc1ccc(NC2=C(Cl)C(=O)C(Nc3ccc(OCCCN(C)C)cc3)=C(Cl)C2=O)cc1,0.14,0.27 µM,1.78,3.4 µM,0.731,2.12 µM,1.66 µM,3.32 µM,0.237,0.657 µM,0.582,1.26 µM,1.56 µM,3.17 µM,1.91,3.53,0.793,2.29 µM,1.99,3.41 µM
O=C1C2C(C(=O)N1Cc1ccccc1)N(Cc1ccccc1)C(=O)N2Cc1ccccc1 (centres undefined),,> 100 µM,,> 100 µM,,> 100 µM,,> 100 µM,,> 100 µM,,> 100 µM,,> 100 µM,,> 100,,> 100 µM,,> 100 µM
